Measurements taken from PMC4589238, “Acute Biphasic Effects of Ayahuasca” (PLoS ONE, 2015).
Where two headings read alike, the source gives them in different places.

Legend:
MAO-A = system: MAO-A; set-up: method as in PMID 19879939; conditions: cited from earlier work
[1] = Plasma concentrations of ayahuasca compounds and metabolites after oral ayahuasca (LC/MS/MS); format: in vivo, human; conditions: for Cmax: po
From the text: A sample of six liters of "Hoasca" was donated by the União do Vegetal (UDV) church in Brazil for the specific purpose of use in this study. Quantification of the main compounds in the brew was done with liquid chromatography-electrospray ionization-tandem mass spectrometry (LC/MS/MS). The screening included the following compounds: DMT, DMT‐N‐oxide (DMT-NO), N‐methyltryptamine (NMT), indoleacetic acid (IAA), 5‐hydroxy‐DMT (5-OH-DMT, or bufotenin), 5‐methoxy‐DMT (5-MeO-DMT), Harmine, Harmol, Harmaline, Harmalol, THH, 7‐hydroxy‐tetrahydroharmine (THH-OH), and 2‐methyl‐tetrahydro‐beta‐carboline (2-MTHBC). The original liquid volume was then reduced to 50% using a rotary evaporator to decrease the amount of liquid intake.
Blood was collected in sterile EDTA containing tubes. Ten blood samples (3 mL each) were collected every 25 minutes, starting 25 minutes before ayahuasca ingestion and ending 200 minutes after ingestion (in a total of ten samples for each individual). Blood was collected by a professional nurse, with a catheter that remained in place during the entire time of the study. Each tube was carefully and slowly turned upside-down three times and then stored at 0°C until all ten samples were collected. Blood samples were then centrifuged at 2000 rpm for 10 min at 4°C and the resulting plasma immediately collected and frozen at -80°C. The frozen plasma samples were stored at -80°C until shipped on dry ice to USA for analysis according to [31]. Compounds included in this screening were DMT, DMT-NO, NMT, IAA, 5-OH-DMT (bufotenin), 5-MeO-DMT, Harmine, Harmol, Harmaline, Harmalol, THH, THH-OH and 2-MTHBC.
Two volunteers opted out of blood collection, and data from one volunteer was discarded due to high hemolysis in the blood samples. Therefore data were available from 16 volunteers. Maximum plasma Concentration (Cmax), Time for maximum plasma concentration (Tmax) and area under the curve (AUC) of ten identified compounds are summarized in Table 2. […] No significant differences were found between men and women for any of the identified compounds in blood. […] There were no significant correlations between time to vomit and Cmax or AUC.

healthy volunteers = test: Association between plasma concentration and EEG spectral changes (generalized linear models); format: in vivo, human
Method: Relationships between plasma concentration of identified compounds and spectral changes in the six frequency bands evaluated were calculated by fitting generalized linear models (glmfit function in MATLAB) for each compound and frequency band. This analysis was followed by the non-parametric cluster based correction with 5000 permutations.
Results were considered statistically significant when p <0.05. Effect sizes are also reported, using Partial eta squared (partial η^2) for the main frequency clusters and Cohen’s d for the generalized linear models.

human subjects = conditions: cited from earlier work
rats = system: rats; set-up: method as in PMID 9649961; conditions: cited from earlier work

COc1ccc2c3c([nH]c2c1)C(C)=NCC3 [Harmaline]
Potency at inhibiting MAO-A relative to MAO-B (MAO-A): 10,000 fold
Cmax ([1]; both sexes, human, in vivo, plasma, 16 volunteers, oral ayahuasca, sampling to 200 min, read-out: Cmax (mean ± sd)): 14.7 ± 13.9 ng/mL
Cmax ([1]; both sexes, human, in vivo, plasma, 16 volunteers, oral ayahuasca, read-out: Cmax (min—max)): 1.56 to 44.4 ng/mL
Tmax ([1]; both sexes, human, in vivo, plasma, 16 volunteers, oral ayahuasca, read-out: Tmax (mean ± sd) (converted)): 2.68 h
Time to reach plateau of plasma level in the group average ([1]; from ayahuasca ingestion, group average curve): 100 min
AUC (min—max) ([1]; plasma, 16 volunteers, oral ayahuasca): 6.16 to 199.78 g·min/mL
Clusters between plasma concentration and EEG spectra (healthy volunteers; delta, theta and beta frequency bands): did not show any significant clusters
Cohen's d, plasma concentration vs alpha band power decrease (healthy volunteers; left centro-parieto-occipito-frontal electrodes): 0.0285
Cohen's d, plasma concentration vs slow-gamma power increase (healthy volunteers; left fronto-temporo-centro-parieto-occipital electrodes also extending to right temporo-parietal electrodes): 0.0885
Cohen's d, plasma concentration vs fast-gamma power increase (healthy volunteers; one large widespread bilateral cluster): 0.0032
Cohen's d, plasma concentration vs alpha band power decrease (healthy volunteers; right central electrodes (C2, C4, CP4 and CP6)): 0.2944
Cohen's d, plasma concentration vs slow-gamma power increase (healthy volunteers; right frontal electrodes): 0.0401
Dose necessary for psychoactivity (human subjects; oral or i.v. administration): 4 mg/kg
Orally psychoactive dose (human subjects; oral): 300 to 400 mg
Substitution in drug discrimination (rats): substitute the psychedelic DOM
